Results reported in US10301292B2, “Bicyclic compound” (Takeda Pharmaceutical Company Limited, priority 2014, dated 2019).

How the values were obtained:
human ACC1 = molecular target: T1, human ACC1 (Homo sapiens, UniProt Q13085); assay: Measurement of ACC1 inhibitory activity (Malonyl-CoA production, RapidFire-mass spectrometry); format: biochemical; details: 10 μM of the test compound; recombinant human ACC1; read-out: ACC1 inhibitory rate (%) at 10 μM
T1 construct: His tag (from vector pFAST-BacHTc; protein captured on Ni-NTA) (N); made in house; host or cells: SF-9 insect cells, recombinant baculovirus BAC-ACC1
Procedure: (1) Cloning of Human ACC1 Gene and Preparation of Recombinant Baculovirus
Human ACC1 gene was cloned by PCR using a human liver cDNA library (Clontech) as a template and Primer 1 and Primer 2 shown below. Primer 1 and Primer 2 were prepared by adding SalI, NotI restriction enzyme recognition sequences based on the information of the base sequence of human ACC1 gene (Genbank Accession U19822).
PCR was performed using Pyrobest DNA polymerase (TAKARA BIO INC.). The obtained PCR product was cloned to pT7 Blue vector (Novagen) and after confirmation of the base sequence, digested with restriction enzymes SalI and XbaI. The obtained DNA fragment was inserted into pFAST-BacHTc (Invitrogen) digested with restriction enzymes SalI and XbaI to give expression plasmid ACC1/pFAST-BacHTc.
Using the expression plasmid ACC1/pFAST-BacHTc and BAC-TO-BAC Baculovirus Expression System (Invitrogen), virus stock BAC-ACC1 of recombinant Baculovirus was prepared.
(2) Preparation of ACC1 Protein
SF-9 cells (Invitrogen) were inoculated to a medium (10 L) for insect cells (Sf-900IISFM medium (Invitrogen) containing 5% fetal bovine serum (Trace), 50 mg/L Gentamicin (Wako Pure Chemical Industries, Ltd.), 0.1% Pluronic F-68 (Invitrogen)) at 1.0×10^6 cells/mL, and cultured with shaking in Wave Bioreactor (GE Healthcare) at 27° C., 20 rpm, rocking angle 10°, oxygen concentration 30%.
On day 2 of the culture, recombinant Baculovirus BAC-ACC1 was added, and the cells were cultured for 3 days. The culture medium was centrifuged at 4000×g for 10 min to give virus-infected cells. The cells were washed with phosphate buffered saline (Invitrogen) and centrifuged under the same conditions. The obtained cells were cryopreserved at −80° C.
The cryopreserved cells were thawed in ice and suspended in 800 mL of 25 mM HEPES buffer (pH 7.5) containing 10% Glycerol, 0.3 M NaCl, 1 mM EDTA, 25 mM Sodium β-Glycerophosphate and 1 mM Sodium Orthovanadate, and supplemented with Complete Protease Inhibitor (Roche). The obtained suspension was homogenized two times in a polytron homogenizer (Kinematica) at 20,000 rpm for 20 sec. The obtained cell disruption solution was clarified by centrifugation at 186,000×g for 60 min and the supernatant was passed through Ni-NTA Superflow Cartridges (5 mL) (QUIAGEN). Furthermore, it was washed with 25 mM HEPES buffer (pH 7.5) containing 20 mM Imidazole, 0.3 M NaCl, and eluted with 25 mM HEPES buffer (pH 7.5) containing 250 mM Imidazol, 0.3 M NaCl. The eluate was concentrated by Amicon Ultra-15 (Nihon Millipore K.K.) having a fraction molecular weight of 50K. The obtained concentrate was subjected to gel filtration with 50 mM HEPES buffer (pH 7.5) containing 10 mM MgCl2, 2 mM dithiothreitol, 10 mM tripotassium citrate, 0.3 M NaCl by using HiLoad 26/60 Superdex200 prep grade gel filtration column (GE Healthcare) to give ACC1. The obtained ACC1 was cryopreserved at −80° C.
(3) Measurement of ACC1 Inhibitory Activity
ACC1 obtained in the above-mentioned (2) was diluted with an enzyme reaction buffer (50 mM HEPES (pH 7.5), 10 mM MgCl2, 10 mM Tripottasium Citrate, 2 mM Dithiothreitol, 0.001% Fatty acid free BSA) to a concentration of 0.2 μg/ml, and the mixture was added to each well of a 384 well assay plate by 10 μl. A test compound dissolved in dimethyl sulfoxide (DMSO) was diluted with an enzyme reaction buffer and the resulting solution (5 μl) was added to each well. The mixture was incubated at room temperature for 60 min. Then, a substrate solution (50 mM KHCO3, 200 μM ATP, 200 μM Acetyl-CoA, 5 μl) was added to each well, and the mixture was reacted at room temperature for 30 min. The reaction was quenched by adding a reaction quenching liquid (1.3% formic acid, 0.2 μM Malonyl-^13C3-CoA) by 60 μL each to the obtained reaction mixtures (test compound addition group).
In addition, a reaction was performed in the same manner as above and without adding the test compound (test compound non-addition group). […]

HCT116 cells = assay: Growth inhibitory activity on HCT116 cell (CellTiter-Glo); format: cell-based; details: Homo sapiens, HCT-116, 72 h, table head: 10 μM (text b2498: 1 μM), 3 days incubation, read-out: HCT116 cell proliferation inhibitory rate (%) at 10 μM
Procedure: The growth inhibitory activity of the compound on HCT116 cell was evaluated by the following method.
HCT116 cells were seeded in a 384 well blackplate at 900 cells/30 μL/well, and maintained in an RPMI medium (Wako)) containing an assay medium (2% fetal bovine serum, 50 Unit/mL penicillin, 50 μg/mL streptomycin (Invitrogen). The next day, a test compound dissolved in dimethyl sulfoxide (DMSO) was diluted with the assay medium, and the obtained compound solution was added by 10 μL to each well of a plate containing HCT116 cells and incubated at 37° C., 5% CO2 (test compound addition group).
A similar reaction was performed without adding a test compound (test compound non-addition group).
Furthermore, a similar reaction was performed under the conditions without adding HCT116 cell and a test compound (control group).
After 3 days, 20 μL of a CellTiter-Glo reagent (Promega KK) was added to the well, and the mixture was stirred for 10 min. Thereafter, the luminescence value of each well was measured by the EnVision™ multilabel counter (Perkin Elmer Inc.).
The HCT116 cell proliferation inhibitory rate (%) of the test compound was determined by the following calculation formula. (1−(luminescence of test compound addition group−luminescence of control group)÷(luminescence of test compound nonaddition group−luminescence of control group))×100

Row | SMILES | inhibition at 10 µM (human ACC1) | inhibition at 10 µM (HCT116 cells)
1 | CCCCn1cc(Oc2ccc(-c3nc4ccc(C(C)NC(C)=O)cc4o3)cn2)ccc1=O (stereo not drawn) [Example 105, N-(1-(2-(6-((1-butyl-6-oxo-1,6-dihydropyridin-3-yl)oxy)pyridin-3-yl)-1,3-benzoxazol-6-yl)ethyl)acetamide] | 96% | 46%
2 | CC(NC(N)=O)c1ccc2nc(-c3ccc(Oc4cncc(OCC5CC5)c4)nc3)oc2c1 (stereo not drawn) [Example 106, 1-(1-(2-(6-((5-(cyclopropylmethoxy)pyridin-3-yl)oxy)pyridin-3-yl)-1,3-benzoxazol-6-yl)ethyl)urea] | 103% | 33%
3 | CC(NC(N)=O)c1ccc2nc(-c3ccc(Oc4cccc(OCC(C)(F)F)c4)nc3)oc2c1 (stereo not drawn) [Example 107, 1-(1-(2-(6-(3-(2,2-difluoropropoxy)phenoxy)pyridin-3-yl)-1,3-benzoxazol-6-yl)ethyl)urea] | 97% | 32%

The next lines start with results.

Row | inhibition at 10 µM (human ACC1) | SMILES | inhibition at 10 µM (HCT116 cells)
4 | 98% | CC(=O)NC(C)c1ccc2nc(-c3ccc(Oc4cccc(OCC5CC5)c4)cc3)oc2n1 (stereo not drawn) [Example 104, N-(1-(2-(4-(3-(cyclopropylmethoxy)phenoxy)phenyl)[1,3]oxazolo[5,4-b]pyridin-5-yl)ethyl)acetamide] | 30%
5 | 100% | CC(NC(N)=O)c1ccc2nc(-c3ccc(Oc4cccc(OCC5CC5)c4)nc3)oc2c1F (stereo not drawn) [Example 108, 1-(1-(2-(6-(3-(cyclopropylmethoxy)phenoxy)pyridin-3-yl)-7-fluoro-1,3-benzoxazol-6-yl)ethyl)urea] | 36%
6 | 97% | CC(NC(N)=O)c1ccc2nc(-c3cnc(Oc4cccc(OCC5CC5)c4)cn3)oc2c1 (stereo not drawn) [Example 109, 1-(1-(2-(5-(3-(cyclopropylmethoxy)phenoxy)pyrazin-2-yl)-1,3-benzoxazol-6-yl)ethyl)urea] | 27%
